Assay results reported in patent US12319664B2, “Herbicidally active 3-phenylisoxazoline-5-carboxamides of cyclopentenylcarboxylic acid derivatives” (Bayer Aktiengesellschaft, priority 2018, dated 2025).

Assays:
ABUTH = assay: Post-emergence herbicidal action against ABUTH; assay type: in vivo, Abutilon theophrasti; conditions: application rate 80 g/ha, rated visually about 3 weeks after treatment
Experimental: (§1) [table] 2. Post-emergence herbicidal action against harmful plants and crop plant compatibility Seeds of monocotyledonous and dicotyledonous weeds and crop plants are placed in sandy loam in plastic or wood-fibre pots, covered with soil and cultivated in a greenhouse under controlled growth conditions. 2 to 3 weeks after sowing, the test plants are treated at the one-leaf stage. The compounds of the invention, formulated in the form of wettable powders (WP) or as emulsion concentrates (EC), are then sprayed onto the green parts of the plants as aqueous suspension or emulsion with addition of 0.5% additive at a water application rate of 600 l/ha (converted). After the test plants have been kept in the greenhouse under optimum growth conditions for about 3 weeks, the activity of the preparations is rated visually in comparison to untreated controls. For example, 100% activity=the plants have died, 0% activity=like control plants.

VERPE = assay: Post-emergence herbicidal action against VERPE; assay type: in vivo, Veronica persica; conditions: application rate 80 g/ha
Summary of the method: (§2)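 Aqueous suspensions or emulsions of WP/EC formulations containing 0.5% additive are sprayed at 600 l/ha onto plants at the one-leaf stage. After about 3 weeks in the greenhouse, activity is rated by eye versus untreated controls.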

HORMU = assay: Post-emergence herbicidal action against HORMU; assay type: in vivo, Hordeum murinum; conditions: application rate 80 g/ha
Summary of the method: as §2

STEME = assay: Post-emergence herbicidal action against STEME; assay type: in vivo, Stellaria media; conditions: application rate 80 g/ha, rated visually about 3 weeks after treatment
Summary of the method: as §2

AMARE = assay: Post-emergence herbicidal action against AMARE; assay type: in vivo, Amaranthus retroflexus; conditions: application rate 80 g/ha, rated visually about 3 weeks after treatment
Summary of the method: as §2

AVEFA = assay: Post-emergence herbicidal action against AVEFA; assay type: in vivo, Avena fatua; conditions: application rate 80 g/ha, rated visually after about 3 weeks
Summary of the method: as §2

LOLRI = assay: Post-emergence herbicidal action against LOLRI; assay type: in vivo, Lolium rigidum; conditions: application rate 80 g/ha, rated visually after about 3 weeks
Summary of the method: as §2

SETVI = assay: Post-emergence herbicidal action against SETVI; assay type: in vivo, Setaria viridis; conditions: application rate 80 g/ha, rated visually after about 3 weeks
Summary of the method: as §2

POLCO = assay: Post-emergence herbicidal action against POLCO; assay type: in vivo, Polygonum convolvulus; conditions: application rate 80 g/ha, rated visually about 3 weeks after treatment
Summary of the method: as §2

ECHCG = assay: Post-emergence herbicidal action against ECHCG; assay type: in vivo, Echinochloa crus-galli; conditions: application rate 80 g/ha, rated visually after about 3 weeks
Summary of the method: as §2

VIOTR = assay: Post-emergence herbicidal action against VIOTR; assay type: in vivo, Viola tricolor; conditions: application rate 80 g/ha, rated visually about 3 weeks after treatment
Experimental: as §1

PHBPU = assay: Post-emergence herbicidal action against PHBPU; assay type: in vivo, Pharbitis purpurea; conditions: application rate 80 g/ha, rated visually about 3 weeks after treatment
Experimental: as §1

ALOMY = assay: Post-emergence herbicidal action against ALOMY; assay type: in vivo, Alopecurus myosuroides; conditions: application rate 80 g/ha, rated visually after about 3 weeks
Summary of the method: as §2

Structure (SMILES)	Herbicidal action against [%] ABUTH (ABUTH)	Herbicidal action against [%] VERPE (VERPE)	Herbicidal action against [%] HORMU (HORMU)	Herbicidal action against [%] STEME (STEME)	Herbicidal action against [%] AMARE (AMARE)	Herbicidal action against [%] AVEFA (AVEFA)	Herbicidal action against [%] LOLRI (LOLRI)	Herbicidal action against [%] SETVI (SETVI)	Herbicidal action against [%] POLCO (POLCO)	Herbicidal action against [%] ECHCG (ECHCG)	Herbicidal action against [%] VIOTR (VIOTR)	Herbicidal action against [%] PHBPU (PHBPU)	Herbicidal action against [%] ALOMY (ALOMY)
CCCS(=O)(=O)NC(=O)C1C=CC(NC(=O)C2(C(F)(F)F)CC(c3cc(F)cc(F)c3)=NO2)C1 (mixture of isomers) [II-33]	80%	80%	90%	80%	90%	100%	90%	80%	90%	80%	90%		
COC(=O)C(C)(C)NC(=O)C1C=CC(NC(=O)C2(C(F)(F)F)CC(c3cc(F)cc(F)c3)=NO2)C1 (mixture of isomers) [II-36]		80%	80%		90%	100%	90%		90%		90%	90%	90%
COC(=O)C(NC(=O)C1C=CC(NC(=O)C2(C(F)(F)F)CC(c3cc(F)cc(F)c3)=NO2)C1)C(C)C (mixture of isomers) [II-37]	80%	90%	90%	90%	90%	100%	100%	80%	100%		90%		80%
COC(=O)[C@@H]1C=C[C@H](NC(=O)C2(C(F)(F)F)CC(c3cc(F)cc(C#N)c3)=NO2)C1 (single isomer, unassigned) [Example I-097]		80%	90%	80%	80%	90%	100%	90%	80%	90%	80%	80%	100%
C=CC1(C(=O)NC2C=CC(C(=O)O)C2)CC(c2cc(F)cc(F)c2)=NO1 (stereo not drawn) [Example I-014]		90%	80%	90%	90%	90%	90%	80%	80%	90%	90%		90%
COCCOC(=O)C1C=CC(NC(=O)C2(C(F)(F)F)CC(c3cc(F)cc(C#N)c3)=NO2)C1 (stereo not drawn) [Example I-099]		80%	80%	80%	80%	90%	100%	90%	80%	80%	80%		90%
O=C(O)C1=C[C@@H](NC(=O)[C@@]2(C(F)(F)F)CC(c3cc(F)cc(F)c3)=NO2)CC1 [Example V-04]	80%	80%	90%	90%	80%		90%	80%		80%	80%		100%
COC(=O)C1=CC[C@H](NC(=O)C2(C)CC(c3cc(F)cc(F)c3)=NO2)C1 (stereo partly drawn) [III-10]	90%	90%	100%	90%	90%	100%	100%	90%		90%	90%	90%	100%
